Experimental data from patent publication US20240277246A1, “MANGANESE-ENHANCED MAGNETIC RESONANCE IMAGING” (IC Targets AS, priority 2021, published 2024).
Read-outs that look alike come from different tables or passages of the source.

What was measured:
[1] = corresponds to end of infusion
Procedure: A midventricular short axis view was used and a region of interest in the left ventricle myocardium and a region of interest in the blood in the ventricular cavity were used for measurements. […] The total infusion time was 7.5 minutes. T1 mapping MRI was performed every 2.5 minutes for a total of 40 minutes to collect data for kinetic analysis.
After the examination, the myocardial T1 values were converted to changes in relaxation rates from the baseline values according to equation 12. The heamocrit for the subject was measured to 0.41 and the plasma T1 values were converted to changes in relaxation rates according to equation 13.
A midventricular short axis view was used in each patient and a region of interest in the left ventricle myocardium and a region of interest in the blood in the ventricular cavity was used for measurements. […] The total infusion time was 7.5 minutes. T1 mapping MRI was performed every 2.5 minutes for a total of 40 minutes to collect data for kinetic analysis.
After the examinations, the myocardial T1 values were converted to changes in relaxation rates from the baseline values according to equation 12. The average heamocrit for the 5 subjects was measured to 0.416 and the plasma T1 values were converted to changes in relaxation rates according to equation 13.

[2] = test system: cardiomyocytes (left ventricle myocardium; uptake via L-type calcium channels); assay: Manganese-enhanced T1 mapping MRI, kinetic analysis of cardiomyocyte cellular manganese uptake after MnDPDP infusion; format: in vivo, human
Procedure: A midventricular short axis view was used and a region of interest in the left ventricle myocardium and a region of interest in the blood in the ventricular cavity was used for measurements. […] The total infusion time was 7.5 minutes. T1 mapping MRI was performed every 2.5 minutes for a total of 40 minutes to collect data for kinetic analysis.
After the examination, the myocardial T1 values were converted to changes in relaxation rates from the baseline values according to equation 12. The heamocrit for the subject was measured to 0.44 and the plasma T1 values were converted to changes in relaxation rates according to equation 13.
This is what would be expected from the loss of cells without a loss of individual cell function. Thus, by applying the prior art method, it would therefore wrongly be concluded that the cellular manganese flux rate was reduced.
The rate constant for cardiomyocyte intracellular relaxivity increase Kcell^ΔR1, and thus the cardiomyocyte cellular manganese uptake rate Kcell^Mn, was calculated according to the invention, applying equation 20 where the constant KECF was set equal to 1. The Kcell^Mn value was 0.0650 min^−1. The data used to calculate the rate constant is shown graphically in FIG. 8 (“ict”), corresponding to a straight line with slope=Kcell^Mn=0.0650 min^−1 and intercept=ECV=0.35. […]
If the ECF was in equilibrium with plasma, the slope would be the ECV=0.322. However, due to the uptake of manganese into the cardiomyocytes, the ECF is in dynamic equilibrium with plasma with a manganese concentration ratio of
Assuming that the rate constant for diffusion between plasma and the ECF is the same in both directions, K1=K2 and K3/K1=1/KECF−1=1/0.72−1=0.40.
When the ratio between the manganese concentration in the ECF and plasma can be estimated, the apparent cellular rate constant Kcell^Mn*KECF can be converted to the actual cellular uptake rate constant Kcell^Mn by division with KECF.

Structure (SMILES): Cc1ncc(COP(=O)(O)O)c(CN(CCN(CC(=O)[O-])Cc2c(COP(=O)(O)O)cnc(C)c2O)CC(=O)[O-])c1O.[Mn+2] [MnDPDP, manganese (II) N,N′-dipyridoxyl-ethylenediamine-N,N′-diacetate-5,5′-bis(phosphate)]
- time at which plasma ΔR1 is highest ([1]; average of 5 patients with hypertrophic cardiomyopathia): 7.5 min
- time at which plasma ΔR1 is highest ([1]; healthy volunteer): 7.5 min
- time at which plasma ΔR1 is highest ([1]; patient with dilated cardiomyopathia): 7.5 min
- cardiomyocyte cellular manganese uptake rate Kcell^Mn (corrected by division with KECF) ([2]; average of 5 patients with hypertrophic cardiomyopathia, KECF 0.72): 0.096
- apparent cellular rate constant Kcell^Mn*KECF ([2]; average of 5 patients with hypertrophic cardiomyopathia, linear regression without restrictions to the intercept): 0.0691
- slope of the Patlak line (prior art method) ([2]; healthy volunteer, 5 μmol/kg infusion over 7.5 min): 0.0484 min⁻¹
- cardiomyocyte cellular manganese uptake rate Kcell^Mn ([2]; healthy volunteer, 5 μmol/kg infusion over 7.5 min, equation 20, KECF set to 1, forced intercept ECV 0.25): 0.0591 min⁻¹
- uptake rate constant by the Patlak method of prior art ([2]; patient with dilated cardiomyopathia, 5 μmol/kg infusion over 7.5 min): 0.0429
- cardiomyocyte cellular manganese uptake rate Kcell^Mn ([2]; patient with dilated cardiomyopathia, 5 μmol/kg infusion over 7.5 min, equation 20, KECF set to 1, forced intercept ECV 0.35): 0.0650 min⁻¹
